# In patent US20250311727A1, “SUBSTITUTED 2-AMINOAZINES AND SALTS THEREOF, AND USE THEREOF AS HERBICIDAL ACTIVE SUBSTANCES” (BAYER AKTIENGESELLSCHAFT, priority 2022, published 2025):
# Key:
# Assay type in all cases: in vivo
# Amaranthus retroflexus [1] = experiment: Post-emergence herbicidal efficacy at 320 g/ha, AMARE; details: rated visually after about 3 weeks vs untreated controls, 100% = plants have died
# Method in brief: (§1)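 Effects are visual ratings taken about three weeks after foliar application, scaled from 0% (as untreated control) to 100% (plants died). Application was at the one-leaf stage in greenhouse-grown pots.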
# Veronica persica = experiment: Pre-emergence herbicide efficacy at 320 g/ha, VERPE; details: scored visually after about 3 weeks vs untreated controls, 100% = plants have died
# Method in brief: (§2)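 Seeds were sown in sandy loam and covered with soil; WP or EC formulations were then sprayed onto the soil surface at 320 g/ha in 600 L/ha water with 0.5% additive. After about 3 weeks in the greenhouse, efficacy was scored visually as % versus untreated controls (100% = plants dead, 0% = like control).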
# Lolium rigidum = experiment: Pre-emergence herbicide efficacy at 320 g/ha, LOLRI; details: scored visually after about 3 weeks vs untreated controls, 100% = plants have died
# Description: Unwanted plants/weeds: • ABUTH: Abutilon theophrasti • ALOMY: Alopecurus myosuroides • AMARE: Amaranthus retroflexus • DIGSA: Digitaria sanguinalis • ECHCG: Echinochloa crus-galli • KCHSC: Kochia scoparia • LOLRI: Lolium rigidum • MATIN: Matricaria inodora • POAAN: Poa annua • POLCO: Polygonum convolvulus • SETVI: Setaria viridis • STEME: Stellaria media • VERPE: Veronica persica • VIOTR: Viola tricolor A. Post-Emergence Herbicidal Efficacy at 320 g/ha
# Seeds of mono- and dicotyledonous weed plants were placed in plastic pots in sandy loam soil (doubly sown with one species each of mono- or dicotyledonous weed plants per pot) and covered with soil. The compounds of the invention, formulated in the form of wettable powders (WP) or as emulsion concentrates (EC), were then applied to the surface of the covering soil as aqueous suspension or emulsion with addition of 0.5% additive at a water application rate of 600 litres per hectare (converted). After the treatment, the pots were placed in a greenhouse and kept under good growth conditions for the test plants. After about 3 weeks, the efficacy of the preparations was scored visually in comparison with untreated controls as percentages.
# For example, 100% activity=the plants have died, 0% activity=like control plants.
# Tables C1 to C12 below show the effects of selected compounds of the general formula (I) according to Table 1 on various harmful plants and at an application rate corresponding to 320 g/ha, which were obtained by the trial procedure specified above.
# Kochia scoparia [2] = experiment: Post-emergence herbicidal efficacy at 320 g/ha, KCHSC; details: rated visually after about 3 weeks vs untreated controls, 100% = plants have died
# Method in brief: as §1
# Echinochloa crus-galli = experiment: Post-emergence herbicidal efficacy at 320 g/ha, ECHCG; details: rated visually after about 3 weeks vs untreated controls, 100% = plants have died
# Method in brief: as §1
# Kochia scoparia [3] = experiment: Pre-emergence herbicide efficacy at 320 g/ha, KCHSC; details: scored visually after about 3 weeks vs untreated controls, 100% = plants have died
# Method in brief: as §2
# Setaria viridis = experiment: Pre-emergence herbicide efficacy at 320 g/ha, SETVI; details: scored visually after about 3 weeks vs untreated controls, 100% = plants have died
# Method in brief: as §2
# Digitaria sanguinalis = experiment: Pre-emergence herbicide efficacy at 320 g/ha, DIGSA; details: scored visually after about 3 weeks vs untreated controls, 100% = plants have died
# Method in brief: as §2
# Amaranthus retroflexus [4] = experiment: Pre-emergence herbicide efficacy at 320 g/ha, AMARE; details: scored visually after about 3 weeks vs untreated controls, 100% = plants have died
# Method in brief: as §2
# Poa annua = experiment: Pre-emergence herbicide efficacy at 320 g/ha, POAAN; details: scored visually after about 3 weeks vs untreated controls, 100% = plants have died
# Method in brief: as §2
# Stellaria media = experiment: Pre-emergence herbicide efficacy at 320 g/ha, STEME; details: scored visually after about 3 weeks vs untreated controls, 100% = plants have died
# Method in brief: as §2
structure (smiles),measurement,setting,value
Fc1cnc(Nc2cccc(F)c2-n2cc(C(F)(F)F)cn2)nc1 [Example 1-48],Post-emergence efficacy at 320 g/ha against AMARE in %,Amaranthus retroflexus [1],100%
same,Pre-emergence efficacy at 320 g/ha against VERPE in %,Veronica persica,100%
same,Pre-emergence efficacy at 320 g/ha against LOLRI in %,Lolium rigidum,100%
same,Post-emergence efficacy at 320 g/ha against KCHSC in %,Kochia scoparia [2],90%
same,Post-emergence efficacy at 320 g/ha against ECHCG in %,Echinochloa crus-galli,90%
same,Pre-emergence efficacy at 320 g/ha against KCHSC in %,Kochia scoparia [3],100%
same,Pre-emergence efficacy at 320 g/ha against SETVI in %,Setaria viridis,100%
same,Pre-emergence efficacy at 320 g/ha against DIGSA in %,Digitaria sanguinalis,100%
same,Pre-emergence efficacy at 320 g/ha against AMARE in %,Amaranthus retroflexus [4],100%
same,Pre-emergence efficacy at 320 g/ha against POAAN in %,Poa annua,100%
same,Pre-emergence efficacy at 320 g/ha against STEME in %,Stellaria media,100%
